Like-named read-outs stand apart in the source and are kept apart here. Each block holds one compound with its values, some of them ahead of it.
What was measured:
H460 cells [1] = assay: In vitro cell proliferation inhibition under normoxia (96-well, CTG, 72 hours); assay type: cell-based, human; details: for IC50 / inhibition at 0.0005 µM / inhibition at 0.0015 µM: Homo sapiens; for inhibition at 0.0005 µM: AST 0.5 nM; for inhibition at 0.0015 µM: AST 1.5 nM
Method: Overview of the experimental process • 1) H460 cell suspension was added to a 96-well plate at 100 µL per well, with a cell density of 2000 /well. • 2) The cells were cultured overnight in an incubator at 37°C, 5% CO2. • 3) Compound Treatment
Monotherapy: After 24 hours of cell plating, each well was supplied with 99.5 µL of growth medium then added with 0.5µL of test compounds at different concentrations, shaken gently to ensure even mixing, and then placed at 37°C, 5% CO2 in an incubator.
(§1) Combination therapy: After 24 hours of cell plating, each well was supplied with 99 µL of growth medium then added with 0.5µL of the combined action compound Nutlin-3, shaken gently to ensure even mixing, and then placed in an incubator for 2 hours. Then each well was added with 0.5µL of test compounds at different concentrations, shaken gently to ensure even mixing, and then placed at 37°C, 5% CO2 in an incubator.
(§2) 4) The cell plate was placed in the incubator for 72 hours.
(§3) 5) The cell plate to be tested was placed at room temperature to equilibrium for 30 minutes, and 100µL of medium was discarded per well.
(§4) 6) 25µL of CTG reagent was added to each well, placed at a fast shaker to shake for 2 minutes, and placed at room temperature away from light for 30 minutes.
(§5) 7) The chemiluminescence signal value was read using a multifunctional microplate reader with a reading time of 1000 ms.
8) IC50 was calculated with Graph Pad Prism 5 software.
(§6) • 1) H460 and HPAF-II cell suspensions were added to a 96-well plate at 100 µL per well, with a cell density of 2000 /well and 20000/well, respectively. • 2) The cells were cultured overnight in an incubator at 37°C, 5% CO2. • 3) Compound Treatment
(§7) Combination therapy: After 24 hours of cell plating, 99 µL of growth medium was supplied to each well. Each well was added with 0.5 µL of Nutlin-3 or RITA, shaken gently to ensure even mixing, and then placed in an incubator for 2 hours. Then each well was added with 0.5µL of test compounds at different concentrations, shaken gently to ensure even mixing, and then placed at 37°C, 5% CO2 in an incubator.
(§8) Monotherapy: After 24 hours of cell plating, 99.5 µL of growth medium was supplied to each well. Then each well was added with 0.5µL of test compounds at different concentrations, shaken gently to ensure even mixing, and then placed at 37°C, 5% CO2 in an incubator.
(§9) 7) The chemiluminescence signal value was read using a multifunctional microplate reader with a reading time of 1000 ms. The corresponding inhibition rate data were calculated.
(§10) • 1) NCI-H460, NCI-H460 P53KO # 1 cell suspensions were added to a 96-well plate at 100 µL per well, with a cell density of 2000 /well. • 2) The cells were cultured overnight in an incubator at 37°C, 5% CO2. • 3) Compound Treatment
as §1, with “plating,” for “plating, each well was supplied with”, “of” for “of growth”, “medium was supplied to each well. Each well was” for “medium then”, “of” for “of the”, “action compound,” for “action compound Nutlin-3,”
(§11) 8) The ICso (half maximal inhibitory concentration) values were calculated using GraphPad Prism 5 software.

H460 P53 KO #1 = assay: In vitro cell proliferation inhibition under normoxia, p53 knockout cells; assay type: cell-based, human; details: for IC50: Homo sapiens, 72 hours
Method: (§12) The p53 CRISPR/Cas9 KO plasmid (human) and p53 HDR plasmid (human) were purchased from Santa Cruz Company to construct H460 P53 KO cell lines, namely p53 knockout (KnockOut) H460 cell lines. Three groups of H460 P53 KO cell lines were constructed with numbers of H460 P53 KO # 1, H460 P53 KO # 7, and H460 P53 KO # 12.
(§13) After co-incubation for 15 minutes, they were added dropwise to the culture medium and mixed well.
(§14) After 48 h, 2 µg/mL puromycin was added for screening.
(§15) When the cell colonies grew to a sufficient size, single colonies were picked and cultured.
(§16) When the cell number reached a sufficient quantity, samples were collected for WB identification of the colonies.
(§17) H460 P53 KO cell lines, i.e. H460 P53 KO # 1, H460 P53 KO # 7, H460 P53 KO # 12 cell lines were used in experiments, respectively.
as §10, §8
as §1, with “plating,” for “plating, each well was supplied with”, “of” for “of growth”, “medium was supplied to each well. Each well was” for “medium then”, “of” for “of the”, “action compound,” for “action compound Nutlin-3,”
as §2, §3, §4, §5, §11

H460 P53 KO #12 = assay: as above; assay type: cell-based, human; details: for IC50: Homo sapiens, NCI-H460, H460 P53 KO # 12, normoxia, 72 hours, alone or with 3µM AST-3021 as labelled (Example 10)
Method: as §12, §13, §14, §15, §16, §17

H460 P53 KO #7 = assay: as above; assay type: cell-based, human; details: for IC50: Homo sapiens, NCI-H460, H460 P53 KO # 7, normoxia, 72 hours, alone or with 3µM AST-3021 as labelled (Example 10)
Method: as §12, §13, §14, §15, §16, §17

H460 cells [2] = assay: Cell cycle G2/M arrest, PI staining flow cytometry; assay type: cell-based
Method: Overview of the experimental process: • 1) H460/HPAF-II cell suspensions were added to a 24-well plate, with a cell density of 100000 /well and 995 µL of medium per well. • 2) The cells were cultured overnight in an incubator at 37°C, 5% CO2. • 3) Compound Treatment
4) The cells were digested, centrifuged at 1000 g at 4°C, washed once with pre-cooled PBS, centrifuged at 1000 g at 4°C, and fixed with 1 mL of pre-cooled 70% ethanol at -20°C overnight.
5) The cells were centrifuged at 3000g at 4°C, washed once with pre-cooled PBS (phosphate buffer), centrifuged at 3000g at 4°C. Prepare PI staining solution. The cells were stained at 37°C away from light for 30 minutes, and stored in an ice bath away from light. Flow cytometric detection was performed on the same day, and the proportion of cells in different cell cycle phases was analyzed using FlowJo.

HPAF-II cells = assay: In vitro cell proliferation inhibition (96-well, CTG, 72 hours); assay type: cell-based; details: for inhibition at 0.06 µM / inhibition at 0.2 µM / inhibition at 1.667 µM / inhibition at 5 µM: Homo sapiens, HPAF-II cells, 72 hours; for inhibition at 0.06 µM: AST 60 nM; for inhibition at 0.2 µM: AST 200 nM; for inhibition at 1.667 µM: AST 1667 nM; for inhibition at 5 µM: AST 5000 nM
Method: as §6, §7, §8, §2, §3, §4, §9

Compound: C[C@H](OP(=O)(N1CC1)N1CC1)c1ccc([N+](=O)[O-])c(Oc2cccc(C(=O)N(C)C)c2)c1 [AST-3424]
- proliferation inhibition rate of AST-3424 (H460 cells [1]; H460 cells, Nutlin-3 added 2 hours in advance, followed by AST-3424, 72 hours (Figure 1)): increase significantly
- IC50 (H460 cells [1]; NCI-H460, 72 h, H460 WT, normoxia, 72 hours, alone or with 3µM AST-3021 as labelled (Example 10)): 0.23 nM
- IC50 (H460 cells [1]; NCI-H460, 72 h, NCI-H460, normoxia, 72 hours, alone or with 3 µM AST-3021 as labelled (Example 13)): 0.43 nM
- IC50 (H460 P53 KO #1; NCI-H460, 72 h, H460 P53 KO # 1, normoxia, alone or with 3µM AST-3021 as labelled (Example 10)): 11.3 nM
- IC50 (H460 P53 KO #1; NCI-H460, 72 h, NCI-H460 P53KO # 1, normoxia, alone or with 3 µM AST-3021 as labelled (Example 13)): 5.45 nM
- IC50 (H460 P53 KO #12): 1.99 nM
- IC50 (H460 P53 KO #7): 23.1 nM
- cell cycle (G0/G1, S, G2/M phases) (H460 cells [2]; first experiment, 0.1 nM AST-3424, 5 µM Nutlin-3, 24 hours, combination: AST-3424 first (Figure 5)): did not significantly alter the cell cycle
- G2/M cell cycle arrest (H460 cells [2]; second experiment, 0.03-1 nM AST-3424, 5 µM Nutlin-3, AST-3424 pre-treatment 2 hours (Figure 6)): concentration-dependent G2/M cell cycle arrest

- IC50 (H460 cells [1]; NCI-H460, H460 cells, monotherapy, applicant's previous cancer cell proliferation inhibition test data, read-out: IC50): 6.87 nM
Compound: O=[N+]([O-])c1ccc(C(OP(=O)(N2CC2)N2CC2)C(F)(F)F)cc1Oc1ccc(-c2ccc(F)cc2)c(F)c1 (stereo not shown) [AST]
- concentration required to achieve an inhibition rate of 11-12% (H460 cells [1]; AST monotherapy, p53 wild-type H460 cells): 1.5 nM
- IC50 (H460 cells [1]; NCI-H460, H460 WT, normoxia, 72 hours, alone or with 3µM AST-3021 as labelled (Example 10), read-out: IC50): 2.55 nM
- inhibition at 0.0005 µM (H460 cells [1]; NCI-H460, H460 cells, 72 hours, RITA 0.025 µM, AST + RITA 0.5+0.025, read-out: Inhibition rate result, experimental group 1): -0.29%
- inhibition at 0.0005 µM (H460 cells [1]; NCI-H460, H460 cells, 72 hours, RITA 0.05 µM, AST + RITA 0.5+0.05, read-out: Inhibition rate result, experimental group 2): -0.29%
- inhibition at 0.0015 µM (H460 cells [1]; NCI-H460, H460 cells, 72 hours, RITA 0.025 µM, AST + RITA 1.5+0.025, read-out: Inhibition rate result, experimental group 3): 12.2%
- inhibition at 0.0015 µM (H460 cells [1]; NCI-H460, H460 cells, 72 hours, RITA 0.05 µM, AST + RITA 1.5+0.05, read-out: Inhibition rate result, experimental group 4): 12.2%
- concentration needed to achieve an inhibition rate of 11-12% (HPAF-II cells; AST monotherapy, p53 mutant HPAF-II cells): 60 nM
- inhibition at 0.06 µM (HPAF-II cells; RITA 2.5 µM, AST + RITA 60+2.5, read-out: Inhibition rate, experimental group 1): 14.9%
- inhibition at 0.06 µM (HPAF-II cells; RITA 5 µM, AST + RITA 60+5, read-out: Inhibition rate, experimental group 2): 14.9%
- inhibition at 0.2 µM (HPAF-II cells; RITA 2.5 µM, AST + RITA 200+2.5, read-out: Inhibition rate, experimental group 3): 11.8%
- inhibition at 0.2 µM (HPAF-II cells; RITA 5 µM, AST + RITA 200+5, read-out: Inhibition rate, experimental group 4): 11.8%
- inhibition at 1.667 µM (HPAF-II cells; RITA 2.5 µM, AST + RITA 1667+2.5, read-out: Inhibition rate, experimental group 5): 74.3%
- inhibition at 1.667 µM (HPAF-II cells; RITA 5 µM, AST + RITA 1667+5, read-out: Inhibition rate, experimental group 6): 74.3%
- inhibition at 5 µM (HPAF-II cells; RITA 2.5 µM, AST + RITA 5000+2.5, read-out: Inhibition rate, experimental group 7): 68.8%
- inhibition at 5 µM (HPAF-II cells; RITA 5 µM, AST + RITA 5000+5, read-out: Inhibition rate, experimental group 8): 68.8%
- IC50 (H460 P53 KO #1; NCI-H460, H460 P53 KO # 1, normoxia, alone or with 3µM AST-3021 as labelled (Example 10)): 264 nM
- Ratio (monotherapy), knockout/wild (H460 P53 KO #1; IC50 ratio, H460 P53 KO # 1 versus H460 WT): 103.53
- IC50 (H460 P53 KO #12): 28 nM
- Ratio (monotherapy), knockout/wild (H460 P53 KO #12; IC50 ratio, H460 P53 KO # 12 versus H460 WT): 10.96
- IC50 (H460 P53 KO #7): 220 nM
- Ratio (monotherapy), knockout/wild (H460 P53 KO #7; IC50 ratio, H460 P53 KO # 7 versus H460 WT): 86.08

Reference: patent EP4755396A1, “TREATMENT OF P53 GENE MUTATION OR DEFECT NEGATIVE CANCER AND TUMOR PATIENTS” (Ascentawits Pharmaceuticals, Ltd., priority 2023, dated 2025)
